Several values for one entry are separate records, joined by “and”; a condition that tells them apart may be missing. Equal values may be shown once. Toxic doses and inconclusive results are not listed. Rule for the calls: active = survival T/C of 150% or more; inactive = T/C below 125% in these data.
Tested on: P388 leukemia ip, CD2F1 mice, survival T/C
Test: NCI In Vivo Anticancer Drug Screen. Data for tumor model P388 Leukemia (intraperitoneal) in CD2F1 (CDF1) mice
Conditions: endpoint: median survival time, higher = longer survival
Procedure, shortened: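 Mice carrying the transplanted tumor received test compound or vehicle. Survival was recorded in each group, and the value is the treated-group measurement divided by that of the vehicle-treated control group.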

[1] = dose: 50.0 mg/kg/injection, schedule: Q01DX005 (ip), vehicle: saline with Tween-80
[2] = dose: 100.0 mg/kg/injection, schedule: Q01DX005 (ip), vehicle: saline with Tween-80
[3] = dose: 200.0 mg/kg/injection, schedule: Q01DX005 (ip), vehicle: saline with Tween-80
[4] = dose: 12.5 mg/kg/injection, schedule: Q01DX005 (ip), vehicle: saline with Tween-80
[5] = dose: 25.0 mg/kg/injection, schedule: Q01DX005 (ip), vehicle: saline with Tween-80
[6] = dose: 50.0 mg/kg/injection, schedule: Q01DX005 (ip), vehicle: Klucel (hydroxypropylcellulose) (HPC)
[7] = dose: 100.0 mg/kg/injection, schedule: Q01DX005 (ip), vehicle: Klucel (hydroxypropylcellulose) (HPC)
[8] = dose: 200.0 mg/kg/injection, schedule: Q01DX005 (ip), vehicle: Klucel (hydroxypropylcellulose) (HPC)
[9] = dose: 50.0 mg/kg/injection, schedule: Q01DX009 (ip), vehicle: Klucel (hydroxypropylcellulose) (HPC)
[10] = dose: 100.0 mg/kg/injection, schedule: Q01DX009 (ip), vehicle: Klucel (hydroxypropylcellulose) (HPC)

Measured: T/C

COc1cc(N=Nc2ccc(N)nc2N)c(OC)cc1N=Nc1ccc([N+](=O)[O-])cc1
inactive: [1] 115 % of control | [2] 107 % of control | [3] 107 % of control

CC(=O)N(C)c1ccc(N=Nc2ccc3ncccc3c2)cc1
inactive: [4] 102 % of control | [5] 100 % of control

CNC(=O)OCc1c(COC(=O)NC)c2n(c1-c1ccc(Cl)c(Cl)c1)CCS2(=O)=O
inactive: [5] 108 % of control | [1] 92 % of control | [2] 88 % of control | [3] 92 % of control

Clc1cccc(O[Si]23OCCN(CCO2)CCO3)c1
inactive: [6] 109 % of control | [7] 106 % of control | [8] 102 % of control

COc1cccc2c1C(=O)c1c(O)c3c(c(O)c1C2=O)C[C@@](O)(C(=O)CSc1nnc(C)s1)C[C@@H]3OC1CC(N)C(O)C(C)O1 (some centres not stated)
active: dose: 6.25 mg/kg/injection, schedule: Q01DX009 (ip), vehicle: water 154 % of control | dose: 12.5 mg/kg/injection, schedule: Q01DX009 (ip), vehicle: water 155 % of control and 158 % of control

CCN(CC)CCN1CC(=O)N2CCCCN2C(=O)C1
inactive: dose: 50.0 mg/kg/injection, schedule: Q01DX005 (ip), vehicle: saline 104 % of control | dose: 100.0 mg/kg/injection, schedule: Q01DX005 (ip), vehicle: saline 102 % of control | dose: 200.0 mg/kg/injection, schedule: Q01DX005 (ip), vehicle: saline 95 % of control

CCCC(C)C(CC)C(=O)NC(N)=O (configuration not stated)
inactive: dose: 12.5 mg/kg/injection, schedule: Q01DX009 (ip), vehicle: Klucel (hydroxypropylcellulose) (HPC) 101 % of control | dose: 25.0 mg/kg/injection, schedule: Q01DX009 (ip), vehicle: Klucel (hydroxypropylcellulose) (HPC) 102 % of control | [9] 98 % of control | [10] 101 % of control

Cc1[nH]nc2c1NC(=O)OC2C (configuration not stated)
inactive: [1] 108 % of control | [2] 99 % of control | [3] 101 % of control

COC1CCC(Sc2cccc[n+]2CC(C)=O)CC1OC (configuration not stated)
inactive: [4] 100 % of control | [5] 99 % of control | [1] 98 % of control and 101 % of control | [2] 102 % of control

CCCCCCCCN(CCCCCCCC)C(=N)c1ccnc2ccccc12
inactive: dose: 6.25 mg/kg/injection, schedule: Q01DX005 (ip), vehicle: saline with Tween-80 101 % of control | [4] 101 % of control | [5] 97 % of control | [1] 96 % of control

CCc1cc2nc3c(=O)[nH]c(=O)nc-3n(CCN(CCO)CCO)c2cc1CC
inactive: dose: 60.0 mg/kg/injection, schedule: Q01DX005 (ip), vehicle: saline with Tween-80 99 % of control | dose: 120.0 mg/kg/injection, schedule: Q01DX005 (ip), vehicle: saline with Tween-80 116 % of control | dose: 240.0 mg/kg/injection, schedule: Q01DX005 (ip), vehicle: saline with Tween-80 108 % of control

CC[N+](C)(C)c1ccc(C(=C2C=CC(=[N+](C)C)C=C2)c2ccc(N(C)C)cc2)cc1
inactive: dose: 3.12 mg/kg/injection, schedule: Q01DX005 (ip), vehicle: saline 100 % of control | dose: 6.25 mg/kg/injection, schedule: Q01DX005 (ip), vehicle: saline 100 % of control | dose: 12.5 mg/kg/injection, schedule: Q01DX005 (ip), vehicle: saline 104 % of control

CN(C)C=C1C=c2cc(C(=O)c3ccccc3)c(=O)c(C(=O)c3ccccc3)cc2=C1
inactive: dose: 100.0 mg/kg/injection, schedule: Q01DX001 (ip), vehicle: saline 108 % of control | dose: 200.0 mg/kg/injection, schedule: Q01DX001 (ip), vehicle: saline 108 % of control | dose: 400.0 mg/kg/injection, schedule: Q01DX001 (ip), vehicle: saline 97 % of control

O=C1N/C(=N/OCc2ccccc2)C(F)C(NOCc2ccccc2)N1 (configuration not stated)
inactive: [9] 96 % of control | [10] 101 % of control | dose: 200.0 mg/kg/injection, schedule: Q01DX009 (ip), vehicle: Klucel (hydroxypropylcellulose) (HPC) 97 % of control

COc1cc2c(cc1OC)[C@H]1[C@@H](CO)c3ccc4c(c3CN1CC2)OCO4
inactive: [6] 109 % of control | [7] 92 % of control | [8] 92 % of control

— PubChem BioAssay AID330 (DTP/NCI, 2004)
